Test results reported in PubChem BioAssay (NCI).
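Values below derive from 48-hour exposures of cells grown in 96-well plates, with endpoints linearly interpolated between the two concentrations bracketing the appropriate inhibition level. TGI: concentration producing complete growth inhibition.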

Legend:
Assay in all cases: NCI anticancer screen, dose series, 48 h
A498 renal = tested on: A498 renal
A549 NSCLC = tested on: A549 NSCLC
ACHN renal = tested on: ACHN renal
CAKI-1 renal = tested on: CAKI-1 renal
CCRF-CEM leukemia = tested on: CCRF-CEM leukemia
COLO 205 colon = tested on: COLO 205 colon
DLD-1 colon = tested on: DLD-1 colon
DMS 273 small cell lung = tested on: DMS 273 small cell lung
EKVX NSCLC = tested on: EKVX NSCLC
HCC-2998 colon = tested on: HCC-2998 colon
HCT-116 colon = tested on: HCT-116 colon
HCT-15 colon = tested on: HCT-15 colon
HL-60(TB) leukemia = tested on: HL-60(TB) leukemia
HOP-62 NSCLC = tested on: HOP-62 NSCLC
HOP-92 NSCLC = tested on: HOP-92 NSCLC
HT29 colon = tested on: HT29 colon
IGROV1 ovarian = tested on: IGROV1 ovarian
K-562 leukemia = tested on: K-562 leukemia
KM12 colon = tested on: KM12 colon
KM20L2 colon = tested on: KM20L2 colon
LOX IMVI melanoma = tested on: LOX IMVI melanoma
LXFL 529 NSCLC = tested on: LXFL 529 NSCLC
M14 melanoma = tested on: M14 melanoma
M19-MEL melanoma = tested on: M19-MEL melanoma
MOLT-4 leukemia = tested on: MOLT-4 leukemia
NCI-H226 lung = tested on: NCI-H226 lung
NCI-H23 lung = tested on: NCI-H23 lung
NCI-H460 lung = tested on: NCI-H460 lung
NCI-H522 lung = tested on: NCI-H522 lung
OVCAR-4 ovarian = tested on: OVCAR-4 ovarian
OVCAR-5 ovarian = tested on: OVCAR-5 ovarian
OVCAR-8 ovarian = tested on: OVCAR-8 ovarian
RPMI-8226 leukemia = tested on: RPMI-8226 leukemia
RXF 393 renal = tested on: RXF 393 renal
SF-268 CNS = tested on: SF-268 CNS
SF-295 CNS = tested on: SF-295 CNS
SF-539 CNS = tested on: SF-539 CNS
SK-MEL-2 melanoma = tested on: SK-MEL-2 melanoma
SK-MEL-28 melanoma = tested on: SK-MEL-28 melanoma
SK-MEL-5 melanoma = tested on: SK-MEL-5 melanoma
SK-OV-3 ovarian = tested on: SK-OV-3 ovarian
SN12C renal = tested on: SN12C renal
SNB-19 CNS = tested on: SNB-19 CNS
SNB-75 CNS = tested on: SNB-75 CNS
SNB-78 CNS = tested on: SNB-78 CNS
SR leukemia = tested on: SR leukemia
SW-620 colon = tested on: SW-620 colon
TK-10 renal = tested on: TK-10 renal
U251 CNS = tested on: U251 CNS
UACC-257 melanoma = tested on: UACC-257 melanoma
UACC-62 melanoma = tested on: UACC-62 melanoma
UO-31 renal = tested on: UO-31 renal
XF 498 CNS = tested on: XF 498 CNS
786-0 renal = tested on: 786-0 renal
BT-549 breast = tested on: BT-549 breast
DMS 114 small cell lung = tested on: DMS 114 small cell lung
DU-145 prostate = tested on: DU-145 prostate
HOP-18 NSCLC = tested on: HOP-18 NSCLC
HS 578T breast = tested on: HS 578T breast
MALME-3M melanoma = tested on: MALME-3M melanoma
MCF7 breast = tested on: MCF7 breast
MDA-MB-231 breast = tested on: MDA-MB-231 breast
MDA-MB-435 = tested on: MDA-MB-435
MDA-N = tested on: MDA-N
NCI/ADR-RES ovarian = tested on: NCI/ADR-RES ovarian
OVCAR-3 ovarian = tested on: OVCAR-3 ovarian
PC-3 prostate = tested on: PC-3 prostate
RXF-631 renal = tested on: RXF-631 renal
T-47D breast = tested on: T-47D breast

Structure (SMILES): O=C(Nc1cccc([N+](=O)[O-])c1)C(=O)C(C(=O)c1ccccc1F)C1OC(=O)C2C=CC=CC21 (stereo not drawn)
- TGI (A498 renal): > 100 µM
- TGI (A549 NSCLC): > 100 µM
- TGI (ACHN renal): > 100 µM
- TGI (CAKI-1 renal): > 100 µM
- TGI (CCRF-CEM leukemia): > 100 µM
- TGI (COLO 205 colon): > 100 µM
- TGI (DLD-1 colon): > 100 µM
- TGI (DMS 273 small cell lung): > 100 µM
- TGI (EKVX NSCLC): > 100 µM
- TGI (HCC-2998 colon): > 100 µM
- TGI (HCT-116 colon): 48.3 µM
- TGI (HCT-15 colon): > 100 µM
- TGI (HL-60(TB) leukemia): 64 µM
- TGI (HOP-62 NSCLC): > 100 µM
- TGI (HOP-92 NSCLC): > 100 µM
- TGI (HT29 colon): > 100 µM
- TGI (IGROV1 ovarian): > 100 µM
- TGI (K-562 leukemia): > 100 µM
- TGI (KM12 colon): > 100 µM
- TGI (KM20L2 colon): > 100 µM
- TGI (LOX IMVI melanoma): 51.7 µM
- TGI (LXFL 529 NSCLC): > 100 µM
- TGI (M14 melanoma): > 100 µM
- TGI (M19-MEL melanoma): > 100 µM
- TGI (MOLT-4 leukemia): > 100 µM
- TGI (NCI-H226 lung): 52.9 µM
- TGI (NCI-H23 lung): > 100 µM
- TGI (NCI-H460 lung): > 100 µM
- TGI (NCI-H522 lung): 55.7 µM
- TGI (OVCAR-4 ovarian): > 100 µM
- TGI (OVCAR-5 ovarian): > 100 µM
- TGI (OVCAR-8 ovarian): > 100 µM
- TGI (RPMI-8226 leukemia): > 100 µM
- TGI (RXF 393 renal): 48.6 µM
- TGI (SF-268 CNS): 70.6 µM
- TGI (SF-295 CNS): > 100 µM
- TGI (SF-539 CNS): 67.5 µM
- TGI (SK-MEL-2 melanoma): > 100 µM
- TGI (SK-MEL-28 melanoma): > 100 µM
- TGI (SK-MEL-5 melanoma): > 100 µM
- TGI (SK-OV-3 ovarian): > 100 µM
- TGI (SN12C renal): > 100 µM
- TGI (SNB-19 CNS): > 100 µM
- TGI (SNB-75 CNS): 84.9 µM
- TGI (SNB-78 CNS): > 100 µM
- TGI (SR leukemia): 84.7 µM
- TGI (SW-620 colon): > 100 µM
- TGI (TK-10 renal): > 100 µM
- TGI (U251 CNS): 77.7 µM
- TGI (UACC-257 melanoma): > 100 µM
- TGI (UACC-62 melanoma): > 100 µM
- TGI (UO-31 renal): > 100 µM
- TGI (XF 498 CNS): > 100 µM

Structure (SMILES): CC(C(=O)O)/C(=C\c1ccc2c(c1)OCO2)C(=O)O (stereo not drawn)
- TGI (786-0 renal): > 100 µM
- TGI (A498 renal): > 100 µM
- TGI (A549 NSCLC): > 100 µM
- TGI (ACHN renal): > 100 µM
- TGI (BT-549 breast): > 100 µM
- TGI (CAKI-1 renal): > 100 µM
- TGI (COLO 205 colon): > 100 µM
- TGI (DLD-1 colon): > 100 µM
- TGI (DMS 114 small cell lung): > 100 µM
- TGI (DMS 273 small cell lung): > 100 µM
- TGI (DU-145 prostate): > 100 µM
- TGI (EKVX NSCLC): > 100 µM
- TGI (HCC-2998 colon): > 100 µM
- TGI (HCT-116 colon): > 100 µM
- TGI (HCT-15 colon): > 100 µM
- TGI (HL-60(TB) leukemia): 0.21 µM
- TGI (HOP-18 NSCLC): > 100 µM
- TGI (HOP-62 NSCLC): > 100 µM
- TGI (HOP-92 NSCLC): > 100 µM
- TGI (HS 578T breast): > 100 µM
- TGI (HT29 colon): > 82.2 µM
- TGI (IGROV1 ovarian): > 100 µM
- TGI (K-562 leukemia): > 100 µM
- TGI (KM12 colon): > 100 µM
- TGI (KM20L2 colon): > 100 µM
- TGI (LOX IMVI melanoma): > 100 µM
- TGI (LXFL 529 NSCLC): > 100 µM
- TGI (M14 melanoma): > 100 µM
- TGI (M19-MEL melanoma): > 100 µM
- TGI (MALME-3M melanoma): > 100 µM
- TGI (MCF7 breast): > 100 µM
- TGI (MDA-MB-231 breast): > 100 µM
- TGI (MDA-MB-435): > 100 µM
- TGI (MDA-N): > 100 µM
- TGI (MOLT-4 leukemia): > 21.9 µM
- TGI (NCI-H226 lung): > 100 µM
- TGI (NCI-H23 lung): > 100 µM
- TGI (NCI-H460 lung): > 100 µM
- TGI (NCI-H522 lung): > 100 µM
- TGI (NCI/ADR-RES ovarian): > 100 µM
- TGI (OVCAR-3 ovarian): > 100 µM
- TGI (OVCAR-4 ovarian): > 100 µM
- TGI (OVCAR-5 ovarian): > 61.5 µM
- TGI (OVCAR-8 ovarian): > 100 µM
- TGI (PC-3 prostate): > 100 µM
- TGI (RPMI-8226 leukemia): > 100 µM
- TGI (RXF 393 renal): > 100 µM
- TGI (RXF-631 renal): > 100 µM
- TGI (SF-268 CNS): > 100 µM
- TGI (SF-295 CNS): > 100 µM
- TGI (SF-539 CNS): > 100 µM
- TGI (SK-MEL-2 melanoma): > 100 µM
- TGI (SK-MEL-28 melanoma): > 100 µM
- TGI (SK-MEL-5 melanoma): > 100 µM
- TGI (SK-OV-3 ovarian): > 100 µM
- TGI (SN12C renal): > 100 µM
- TGI (SNB-19 CNS): > 100 µM
- TGI (SNB-75 CNS): > 100 µM
- TGI (SR leukemia): > 100 µM
- TGI (SW-620 colon): > 100 µM
- TGI (T-47D breast): > 100 µM
- TGI (TK-10 renal): > 100 µM
- TGI (U251 CNS): > 100 µM
- TGI (UACC-257 melanoma): > 100 µM
- TGI (UACC-62 melanoma): > 100 µM
- TGI (UO-31 renal): > 100 µM
- TGI (XF 498 CNS): > 100 µM

Structure (SMILES): CC(=O)N1CC(=O)NC1=S
- TGI (786-0 renal): > 100 µM
- TGI (A549 NSCLC): > 100 µM
- TGI (ACHN renal): > 100 µM
- TGI (CAKI-1 renal): > 100 µM
- TGI (CCRF-CEM leukemia): > 100 µM
- TGI (COLO 205 colon): > 100 µM
- TGI (DLD-1 colon): > 100 µM
- TGI (DMS 114 small cell lung): > 100 µM
- TGI (DMS 273 small cell lung): > 100 µM
- TGI (EKVX NSCLC): > 100 µM
- TGI (HCT-116 colon): > 100 µM
- TGI (HCT-15 colon): > 100 µM
- TGI (HL-60(TB) leukemia): > 100 µM
- TGI (HOP-62 NSCLC): > 100 µM
- TGI (HOP-92 NSCLC): > 100 µM
- TGI (HT29 colon): > 100 µM
- TGI (IGROV1 ovarian): > 100 µM
- TGI (K-562 leukemia): > 100 µM
- TGI (KM12 colon): > 100 µM
- TGI (KM20L2 colon): > 100 µM
- TGI (LOX IMVI melanoma): > 100 µM
- TGI (LXFL 529 NSCLC): > 100 µM
- TGI (M14 melanoma): > 100 µM
- TGI (M19-MEL melanoma): > 100 µM
- TGI (MALME-3M melanoma): > 100 µM
- TGI (MOLT-4 leukemia): > 100 µM
- TGI (NCI-H226 lung): > 100 µM
- TGI (NCI-H23 lung): > 100 µM
- TGI (NCI-H522 lung): > 100 µM
- TGI (OVCAR-3 ovarian): > 100 µM
- TGI (OVCAR-4 ovarian): > 100 µM
- TGI (OVCAR-5 ovarian): > 100 µM
- TGI (OVCAR-8 ovarian): > 100 µM
- TGI (RPMI-8226 leukemia): > 100 µM
- TGI (SF-268 CNS): > 100 µM
- TGI (SF-295 CNS): > 100 µM
- TGI (SF-539 CNS): > 100 µM
- TGI (SK-MEL-2 melanoma): > 100 µM
- TGI (SK-MEL-28 melanoma): > 100 µM
- TGI (SK-MEL-5 melanoma): > 100 µM
- TGI (SK-OV-3 ovarian): > 100 µM
- TGI (SN12C renal): > 100 µM
- TGI (SNB-19 CNS): > 100 µM
- TGI (SNB-75 CNS): > 100 µM
- TGI (SNB-78 CNS): > 100 µM
- TGI (SR leukemia): > 100 µM
- TGI (SW-620 colon): > 100 µM
- TGI (TK-10 renal): > 100 µM
- TGI (U251 CNS): > 100 µM
- TGI (UACC-257 melanoma): > 100 µM
- TGI (UACC-62 melanoma): > 100 µM
- TGI (UO-31 renal): > 100 µM
- TGI (XF 498 CNS): > 100 µM
